Experimental data as given in US20260234157A1, “COMPOUND AND METHOD FOR TARGETED DEGRADATION OF ANDROGEN RECEPTOR” (Gan & Lee Pharmaceuticals Co., Ltd., priority 2023, published 2026).
Positions count from the first letter of the chain named. pIC50: −log10 of the molar value. Read-outs that look alike come from different tables or passages of the source.

Assays:
Format in all cases: cell-based
VCaP cells = assay: Inhibition of proliferation of VCaP cells (WST-8); conditions: Homo sapiens, read-out: IC50 for inhibiting the proliferation of VCaP cells
Procedure: The inhibitory activity of the compounds disclosed in the present disclosure on the proliferation of VCaP cells
On the first day of the experiment, […] were inoculated in 96 well plates at a density of 15000 cells per well using DMEM medium containing 10% fetal bovine serum, with 100 μL of cell suspension per well. The cells were cultured in a cell culture incubator with 5% CO2 at 37° C. overnight. […] On the ninth day, 96 well plates were taken out, and 20 μL of WST-8 (Beytime, C0040) reagent was added to each well.

LNCaP FGC cells = assay: Inhibition of proliferation of LNCaP cells (WST-8); conditions: Homo sapiens, LNCaP, 96 h
Procedure: The cells were cultured in a cell culture incubator with 5% CO2 at 37° C. overnight. […] On the sixth day, 96 well plates were taken out, and 20 μL of WST-8 (Beytime, C0040) reagent was added to each well.

AR protein [1] = molecular target: T1, AR protein (Homo sapiens, UniProt P10275); assay: Degradation of AR protein in VCaP cells (Western blot); conditions: 8 hours; for inhibition at 0.01 µM: read-out: Degradation rate of the AR protein in VCaP cells, 10 nM (%); for inhibition at 0.1 µM: read-out: Degradation rate of the AR protein in VCaP cells, 100 nM (%)
T1 construct: degradation activity of the compounds disclosed in the present disclosure on AR protein in VCaP cells; host or cells: VCaP
T1 sequence (P10275 1-920): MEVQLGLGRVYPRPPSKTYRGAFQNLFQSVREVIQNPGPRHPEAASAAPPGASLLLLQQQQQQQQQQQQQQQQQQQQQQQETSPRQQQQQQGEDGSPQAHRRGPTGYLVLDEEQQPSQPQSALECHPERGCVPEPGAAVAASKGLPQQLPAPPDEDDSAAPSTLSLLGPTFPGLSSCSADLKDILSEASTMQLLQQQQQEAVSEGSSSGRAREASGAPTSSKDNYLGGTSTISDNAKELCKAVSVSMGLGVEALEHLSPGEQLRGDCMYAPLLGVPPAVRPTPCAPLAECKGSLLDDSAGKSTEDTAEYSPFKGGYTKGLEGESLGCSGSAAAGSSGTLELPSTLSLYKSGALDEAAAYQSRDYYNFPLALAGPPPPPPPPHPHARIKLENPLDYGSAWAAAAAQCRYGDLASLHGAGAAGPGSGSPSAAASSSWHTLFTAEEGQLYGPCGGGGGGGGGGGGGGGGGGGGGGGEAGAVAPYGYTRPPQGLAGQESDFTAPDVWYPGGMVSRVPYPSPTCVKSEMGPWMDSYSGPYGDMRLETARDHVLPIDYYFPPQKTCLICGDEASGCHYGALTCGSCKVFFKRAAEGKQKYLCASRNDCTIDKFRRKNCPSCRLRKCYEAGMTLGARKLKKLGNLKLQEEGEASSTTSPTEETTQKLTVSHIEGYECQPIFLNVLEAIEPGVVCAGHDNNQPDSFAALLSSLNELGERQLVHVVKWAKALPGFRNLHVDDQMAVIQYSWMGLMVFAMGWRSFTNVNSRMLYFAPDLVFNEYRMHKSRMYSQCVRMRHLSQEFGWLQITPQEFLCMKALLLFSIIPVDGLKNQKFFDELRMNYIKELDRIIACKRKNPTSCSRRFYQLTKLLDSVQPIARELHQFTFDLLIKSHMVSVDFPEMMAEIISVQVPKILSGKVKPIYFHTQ
Summary of the method: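 Western blot readout: AR band grayscale normalised to GAPDH, used to derive degradation rate. Lysates came from VCaP cells exposed to compound for 8 h, with solvent controls run in parallel.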

AR protein [2] = molecular target: T2, AR protein (Homo sapiens, UniProt P10275, T878A); assay: Degradation of AR protein in LNCaP cells (Western blot); conditions: for inhibition at 0.01 µM: read-out: Degradation rates of the AR protein in LNCaP cells, 10 nM (%); for inhibition at 0.1 µM: read-out: Degradation rates of the AR protein in LNCaP cells, 100 nM (%)
T2 construct: degradation activity of the compounds disclosed in the present disclosure on AR protein in LNCaP cells; host or cells: LNCaP FGC
T2 sequence (P10275 1-920 T878A): T1 sequence (P10275 1-920) with T878A
Summary of the method: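 Percent AR degradation was derived from GAPDH-normalised Western blot band intensities (infrared detection) in LNCaP lysates.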

[3] = VCaP cells, 168 hours, WST-8 absorbance at 450 nm
[4] = LNCaP FGC cells, 96 hours, WST-8 absorbance at 450 nm, read-out: IC50 for inhibiting the proliferation of LNCaP cells
[5] = LNCaP cells, compound 10 nM, 8 hours, Western blot grayscale, GAPDH internal reference
[6] = LNCaP cells, compound 100 nM, 8 hours, Western blot grayscale, GAPDH internal reference

Row | SMILES | pIC50 (VCaP cells; [3]) | pIC50 (LNCaP FGC cells; [4]) | inhibition at 0.01 µM (AR protein [1]; compound at 10 nM) [%] | inhibition at 0.1 µM (AR protein [1]; compound at 100 nM) [%] | inhibition at 0.01 µM (AR protein [2]; [5]) [%] | inhibition at 0.1 µM (AR protein [2]; [6]) [%] | pIC50 (VCaP cells; VCaP, 168 h) | pIC50 (LNCaP FGC cells; read-out: IC50 for inhibiting the proliferation of LNCaP cells, LNCaP FGC cells, 96 hours, WST-8 absorbance at 450 nm) | inhibition at 0.01 µM (AR protein [2]; LNCaP, 8 h) [%] | inhibition at 0.1 µM (AR protein [2]; LNCaP, 8 h) [%] | Degradation rate of the AR protein in VCaP cells, 10 nM (%) (AR protein [1]; compound at 10 nM) | Degradation rate of the AR protein in VCaP cells, 100 nM (%) (AR protein [1]; compound at 100 nM)
1 | N#Cc1ccc(O[C@H]2CC[C@H](NC(=O)c3ccc(N4CCC5(CC(N6CCC7(CC6)COc6cc8c(cc67)C(=O)N(C6CCC(=O)NC6=O)C8=O)C5)C4)nn3)CC2)cc1Cl (stereo partly shown) [Compound 54] | 7.33 | 5.77 | 75 | 85 | 24 | 76 | – | – | – | – | – | –
2 | COc1cc(O[C@H]2C(C)(C)[C@H](NC(=O)c3ccc(N4CCC(CN5CCC6(CC5)COc5c6ccc6c5C(=O)N(C5CCC(=O)NC5=O)C6=O)CC4)cc3)C2(C)C)ccc1C#N (stereo partly shown) [Compound 234] | 7.44 | 6.57 | 35 | 72 | 58 | 81 | – | – | – | – | – | –
3 | N#Cc1ccc(O[C@H]2CC[C@H](NC(=O)c3ccc(N4CC(N5CC6(CCc7cc8c(cc7O6)C(=O)N(C6CCC(=O)NC6=O)C8=O)C5)C4)nn3)CC2)cc1Cl (stereo partly shown) [Compound 5] | – | – | 41 | 51 | – | – | 5.35 | 6.15 | 51 | 35 | – | –
4 | COc1cc(O[C@H]2CC[C@H](NC(=O)c3ccc(N4CCC(C#N)(CN5CCC6(CC5)COc5c6ccc6c5C(=O)N(C5CCC(=O)NC5=O)C6=O)CC4)nn3)CC2)ccc1C#N (stereo partly shown) [Compound 229] | 7.82 | 6.48 | 33 | 73 | 49 | 59 | – | – | – | – | – | –
5 | N#Cc1ccc(O[C@H]2CC[C@H](NC(=O)c3ccc(N4CCC(F)(CN5CC6(CCc7ccc8c(c7O6)C(=O)N(C6CCC(=O)NC6=O)C8)C5)CC4)nn3)CC2)cc1Cl (stereo partly shown) [Compound 139] | < 4.05 | 4.28 | -16 | -31 | 42 | 11 | – | – | – | – | – | –
6 | N#Cc1ccc(O[C@H]2CC[C@H](NC(=O)c3ccc(N4CCN(C(=O)CN5CCC6(CC5)COc5c6ccc6c5CN(C5CCC(=O)NC5=O)C6=O)CC4)nn3)CC2)cc1Cl (stereo partly shown) [Compound 233] | 7.37 | 4.46 | 74 | 87 | 49 | 62 | – | – | – | – | – | –
7 | N#Cc1ccc(O[C@H]2CC[C@H](NC(=O)c3ccc(N4CCC5(CCc6cc7c(cc6O5)C(=O)N(C5CCC(=O)NC5=O)C7=O)CC4)nn3)CC2)cc1Cl (stereo partly shown) [Compound 28] | 5.21 | 5.41 | 9 | 35 | 58 | 60 | – | – | – | – | – | –
8 | CCC1(CN2CCC3(CC2)COc2c3ccc3c2CN(C2CCC(=O)NC2=O)C3=O)CCN(c2ccc(C(=O)N[C@H]3CC[C@H](Oc4ccc(C#N)c(Cl)c4)CC3)nn2)CC1 (stereo partly shown) [Compound 236] | 9.00 | 7.66 | 37 | 82 | 44 | 60 | – | – | – | – | – | –
9 | N#Cc1ccc(O[C@H]2CC[C@H](NC(=O)c3ccc(N4CC5(CC(N6CCC7(CC6)COc6cc8c(cc67)C(=O)N(C6CCC(=O)NC6=O)C8=O)C5)C4)nn3)CC2)cc1Cl (stereo partly shown) [Compound 50] | 7.55 | 5.92 | 77 | 88 | 66 | 86 | – | – | – | – | – | –
10 | COc1cc(O[C@H]2C(C)(C)[C@H](NC(=O)c3ccc(N4CCC(F)(CN5CCC6(CC5)COc5cc7c(cc56)C(=O)N(C5CCC(=O)NC5=O)C7=O)CC4)cc3)C2(C)C)ccc1C#N (stereo partly shown) [Compound 273] | 6.01 | 4.02 | -20 | 7 | 2 | 26 | – | – | – | – | – | –
11 | N#Cc1ccc(O[C@H]2CC[C@H](NC(=O)c3ccc(N4CCC(F)(CN5CCC6(CC5)COc5ccc7c(c5C6)C(=O)N(C5CCC(=O)NC5=O)C7)CC4)nn3)CC2)cc1Cl (stereo partly shown) [Compound 147] | 5.52 | 4.77 | 24 | 47 | -3 | 14 | – | – | – | – | – | –
12 | COc1cc(O[C@H]2CC[C@H](NC(=O)c3ccc(N4CC(CN5CCC6(CC5)COc5c6ccc6c5C(=O)N(C5CCC(=O)NC5=O)C6=O)C4)nn3)CC2)ccc1C#N (stereo partly shown) [Compound 251] | 6.57 | 6.82 | 48 | 73 | 45 | 37 | – | – | – | – | – | –
13 | COc1cc(O[C@H]2C(C)(C)[C@H](NC(=O)c3ccc(N4CCC(C)(CN5CCC6(CCc7ccc8c(c7O6)CN(C6CCC(=O)NC6=O)C8=O)CC5)CC4)cc3)C2(C)C)ccc1C#N (stereo partly shown) [Compound 283] | 7.89 | 4.01 | 2 | 45 | 53 | 66 | – | – | – | – | – | –
14 | N#Cc1ccc(O[C@H]2CC[C@H](NC(=O)c3ccc(N4CCC(C(=O)N5CCC(N6CCC7(CC6)COc6c7ccc7c6CN(C6CCC(=O)NC6=O)C7=O)CC5)CC4)nn3)CC2)cc1Cl (stereo partly shown) [Compound 161] | 8.52 | 6.36 | – | – | – | – | – | – | – | – | 47 | 84
